Inhibition and IC50 data for six compounds are collected here from patent publication US5298521A, “1,5-diphenyl-3-pyrazolylalkyl-N-hydroxydithiocaramates, compositions and use” (Ortho Pharmaceutical Corporation, priority 1993, dated 1994).

Read-outs that look alike come from different tables or passages of the source.

For assay [1], the target named is T1, RBL-1 cell 5-lipoxygenase (Rattus norvegicus, UniProt P12527).
T1 construct: the supernatant was saved as the source of enzymes; endogenous in cells; host or cells: RBL-1 rat basophilic leukemia cells, homogenate supernatant
T1 sequence (P12527 1-673): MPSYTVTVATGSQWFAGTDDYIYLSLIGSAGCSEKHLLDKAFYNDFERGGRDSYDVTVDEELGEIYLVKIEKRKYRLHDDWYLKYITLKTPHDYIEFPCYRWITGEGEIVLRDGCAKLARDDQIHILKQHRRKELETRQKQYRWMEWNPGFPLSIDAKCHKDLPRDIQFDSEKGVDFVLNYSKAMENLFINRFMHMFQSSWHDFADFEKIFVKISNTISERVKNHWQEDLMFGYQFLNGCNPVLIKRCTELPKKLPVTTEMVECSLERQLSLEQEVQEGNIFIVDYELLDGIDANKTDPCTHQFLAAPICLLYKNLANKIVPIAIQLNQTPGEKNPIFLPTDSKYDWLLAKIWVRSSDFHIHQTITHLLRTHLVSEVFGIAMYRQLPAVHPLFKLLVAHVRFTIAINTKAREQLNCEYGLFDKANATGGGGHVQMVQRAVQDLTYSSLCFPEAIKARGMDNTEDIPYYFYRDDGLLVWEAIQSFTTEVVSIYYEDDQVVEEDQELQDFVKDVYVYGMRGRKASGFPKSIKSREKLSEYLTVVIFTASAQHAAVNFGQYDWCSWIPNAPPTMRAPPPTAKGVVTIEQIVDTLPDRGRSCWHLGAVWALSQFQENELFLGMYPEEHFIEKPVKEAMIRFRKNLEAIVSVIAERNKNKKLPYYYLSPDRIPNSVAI
Briefly: RBL-1 cell 5-lipoxygenase, cell homogenate supernatant (Procedure II). The format is biochemical. The conditions noted are these: RBL-1 homogenate; for inhibition at 3 µM: read-out: PROC. II % INHIBITION 5-LO; for IC50: read-out: PROC. II IC50 5-LO. On the procedure:
RBL-1 cell 5-lipoxygenase and cyclooxygenase
Rat basophilic leukemia cells (RBL-1; 5×10^7 viable cells/mL) were disrupted by homogenization on ice (four 20 sec bursts) with a Brinkman polytron. Complete cell breakage was verified microscopically. The homogenate was then centrifuged at 10,000×g for 48 minutes at 4° C. The pellet was discarded and the supernatant was saved as the source of enzymes. The supernatant was pre-incubated for five minutes at 37° C. in the presence of 2 mM of CaCl2 and compound or vehicle (1% DMSO). The conversion of AA into 5-LO products was initiated by adding 10 μL (50 μCi) of 1-^14 C-AA to each tube and incubated at 37° C. for 20 minutes. The reaction was stopped by adjusting the pH of each sample to 3 to 3.5 with 2M formic acid. Samples were extracted with three volumes of chloroform to isolate the products of 5-LO formed during the reaction. Fractions were dried under nitrogen, then resuspended in 40 μL of chloroform and spotted onto silica gel HL plates. The plates were developed in A-9 solvent. The dried plates were analyzed using a Bioscan Imaging TLC scanner to determine the percentage of radiolabelled AA converted to 5-HETE in each sample.

Assay [2] deals with CO in intact RBL-1 cells. Briefly: CO inhibition in intact RBL-1 cells (Procedure III). The format is cell-based, rat. Particulars: superscript = number of experiments, read-out: PROC. III IC50 CO. On the procedure:
(§1) The ability to inhibit 5-LO and CO in intact RBL-1 cells was also evaluated. RBL-1 cells were maintained in culture in minimal essential medium (Bio*Whittaker, Walkersville, MD), containing 12.5% fetal calf serum, 10 mg/mL streptomycin, 10 I.U./mL penicillin G, […] gentamycin and 2 mM L-glutamine (Bio*Whittaker, Walkersville, MD). Cells were collected by centrifugation, washed once in HBSS, and resuspended at a concentration of 1×10^5 cells/mL. Cells were incubated in the presence of vehicle or drug then centrifuged at 800×g for 10 minutes at 4° C. The supernatant was removed by aspiration and the cells were resuspended in 0.5 mL of HBSS. The reaction was started by the addition of 20 μg/mL of calcium ionophore A-23187 (mixed calcium and magnesium salts, Calbiochem, La Jolla CA) and allowed to proceed for 15 minutes, then stopped by plunging the tubes into a slush ice bath. The conversion of AA to 5-LO products was initiated by the addition of 10 μL (50 uCi) of 1-^14 C-AA. Products were isolated by acidification and extraction, followed by thin layer chromatography analysis as described above. Radioactive areas corresponding to authentic 5-LO and CO products were quantitated by the Bioscan 2000 Imaging System.

Assay [3] addresses T2, 5-LO in intact RBL-1 cells (Rattus norvegicus, UniProt P12527).
T2 construct: endogenous in cells; host or cells: intact RBL-1 cells
T2 sequence (P12527 1-673): T1 sequence (P12527 1-673)
Nature of the assay: 5-LO inhibition in intact RBL-1 cells (Procedure III). The class given is cell-based. Particulars: read-out: PROC. III IC50 5-LO. How it is done: as §1

Assay [4] has as its system CO. Briefly: Ex vivo eicosanoid synthesis in dog whole blood, CO (prostaglandin F2α or TxB2) (Procedure IV). Particulars: Canis lupus familiaris, oral, read-out: PROC. IV % INHIB/HOURS CO; for inhibition at 5 mg/kg: 5 MPK. On the procedure:
(§2) Ex Vivo eicosanoid synthesis in dog whole blood. Adult beagle or mongrel dogs (10-15 kg) of either sex were fasted overnight prior to the initiation of each experiment. The forelimb was clipped and swabbed with an alcohol prep (70% isopropanol). Blood was drawn by venipuncture into syringes containing lithium heparin (Starstead, Newton NC) immediately prior to administration of compound or vehicle and then at various intervals following dosing. The test compound was administered orally as a suspension in 0.5% methocel. At various times after dosing, blood samples were drawn and placed on an electric rocker platform to assure complete and continuous mixing. White blood cell (wbc) counts were performed using a Sysmex hematology analyzer. This was done in an effort to normalize the number of leukocytes to be stimulated with calcium ionophore. A 1.0 mL aliquot of whole blood was challenged with 50 μL of a 2.6×10^-5 M solution of calcium ionophore A23187 (Calbiochem, La Jolla, CA) prepared in DMSO and diluted in HBSS. After a 15 minute incubation at 37° C., the reaction was stopped by placing the samples in an ice bath (4° C.) for 5 minutes and then centrifuged at 11,000×g for 5 minutes to separate the plasma fraction from blood cells. The plasma fraction was removed, diluted in an appropriate buffer, and analyzed for the presence of LTB4 and prostaglandin F2α or TxB2 by standard RIA techniques. […]

Assay [5] concerns 5-LO. Briefly: Ex vivo eicosanoid synthesis in dog whole blood, 5-LO (LTB4) (Procedure IV). The conditions noted are these: Canis lupus familiaris, oral, read-out: PROC. IV % INHIB/HOURS 5-LO; for inhibition at 5 mg/kg: 5 MPK, 6 hours. On the procedure: as §2

With `COc1ccc(-n2nc(CSC(=S)N(O)C(C)C)cc2-c2ccc(Cl)cc2)cc1` [1-B], the inhibition at 3 µM in assay [1] stood at 100%. Besides, the IC50 turned out to be 570 nM in assay [1], 1400 nM in assay [2] and 7000 nM in assay [3]. Moreover, the inhibition at 1 mg/kg in assay [4] (1 MPK, 2 hours) was found to be 77%; in assay [5] (1 MPK, 2 hours), 36%.
In the case of `COc1ccc(-n2nc(CSC(=S)N(C)O)c(Cl)c2-c2ccc(Cl)cc2)cc1` [1-C], the inhibition at 3 µM in assay [1] was determined as 91%. The results for the IC50 in assay [2] and in assay [3] were 2400 nM and 240 nM, respectively.
On to `COc1ccc(-n2nc(CSC(=S)N(O)C(C)C)c(Cl)c2-c2ccc(Cl)cc2)cc1` [1-D], for which the inhibition at 3 µM in assay [1] was 70%. Further, the IC50 in assay [1] came to 70 nM. Moreover, the results for the inhibition at 5 mg/kg in assay [4] (24 hours) and in assay [5] were 32% and 2%, respectively.
On to `COc1ccc(-n2nc(CSC(=S)N(O)C(C)C)c(Br)c2-c2ccc(Cl)cc2)cc1` [1-E], for which the inhibition at 3 µM in assay [1] stood at 73%. Also, the results for the concentration for half-maximal inhibition (IC50) in assay [1], in assay [2] and in assay [3] were 40 nM, 6500 nM and 2800 nM, respectively. In addition, the inhibition at 5 mg/kg in assay [4] (6 hours) was found to be 31%; in assay [5] it was 41%.
For `COc1ccc(-n2nc(CSC(=S)N(O)C(C)C)cc2-c2ccc(C)cc2)cc1` [1-G], the inhibition at 3 µM in assay [1] turned out to be 79%. Further, the results for the IC50 in assay [1], in assay [2] and in assay [3] were 20 nM, 180 nM and 5600 nM, respectively.
Take `COc1ccc(-n2nc(CSC(=S)N(C)O)c(Cl)c2-c2ccc(C)cc2)cc1` [1-H]: the inhibition at 3 µM in assay [1] worked out at 91%. The IC50 in assay [2] amounted to 1600 nM; in assay [3] it was 670 nM.

Broadly, the IC50 is the concentration that gives 50% inhibition.
